Like-named read-outs stand apart in the source and are kept apart here.
Tests used:
CYP3A4 = CYP3A4 (Homo sapiens, UniProt P08684); settings: cited from earlier work
[1] = AUC and Cmax target safe levels of CYP3A4 substrate drugs (Table 1)
Excerpt: In various embodiments, the “Target safe levels” are non-limiting examples of the upper limit of fold change or percent of baseline where in some embodiments the benefits of treating the patient for the condition or disease for which the CYP3A4 substrate drug is indicated outweigh the risks associated with the effects of a drug-drug interaction. […] For purposes of the present methods, the blood plasma levels measured during co-administration of the CYP3A4 substrate drug with […] may be used to estimate the posaconazole DDI decay curve, e.g., using equation 1.

[2] = co-administered with a strong CYP3A4 inhibitor (posaconazole, itraconazole, ritonavir, or ketoconazole)
[3] = upper limit where benefits outweigh risks, approximation, can vary by about ±25%

Chain of CYP3A4 (P08684 whole entry): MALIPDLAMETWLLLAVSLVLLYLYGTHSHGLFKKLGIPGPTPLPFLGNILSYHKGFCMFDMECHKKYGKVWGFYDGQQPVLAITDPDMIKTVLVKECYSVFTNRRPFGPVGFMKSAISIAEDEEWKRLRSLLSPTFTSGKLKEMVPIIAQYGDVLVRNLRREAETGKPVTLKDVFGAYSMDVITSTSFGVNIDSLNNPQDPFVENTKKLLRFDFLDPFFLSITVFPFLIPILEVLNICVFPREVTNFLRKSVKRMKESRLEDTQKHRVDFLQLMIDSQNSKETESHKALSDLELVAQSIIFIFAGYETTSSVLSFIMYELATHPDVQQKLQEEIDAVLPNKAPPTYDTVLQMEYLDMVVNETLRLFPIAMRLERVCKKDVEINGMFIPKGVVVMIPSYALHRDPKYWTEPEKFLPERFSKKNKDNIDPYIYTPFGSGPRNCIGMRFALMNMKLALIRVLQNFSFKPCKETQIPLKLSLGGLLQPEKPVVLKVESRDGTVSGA

SMILES	AUC co-administration levels, Fold change (CYP3A4; in vivo)	AUC co-administration levels, Percent of baseline (CYP3A4; in vivo)	Cmax co-administration levels, Fold change (CYP3A4; in vivo)	Cmax co-administration levels, Percent of baseline (CYP3A4; in vivo)	other results
CCN1CCN(Cc2ccc(Nc3ncc(F)c(-c4cc(F)c5nc(C)n(C(C)C)c5c4)n3)nc2)CC1 [abemaciclib]	16 fold	1600%			AUC target safe level, Fold change ([1]; human): 1.3 fold; AUC target safe level, Percent of baseline ([1]; human): 130%
CC#CC(=O)N1CCC[C@H]1c1nc(-c2ccc(C(=O)Nc3ccccn3)cc2)c2c(N)nccn12 [acalabrutinib]	5.1 fold	510%	3.9 fold	390%	AUC target safe level, Fold change ([1]; human): 2.0 fold; AUC target safe level, Percent of baseline ([1]; human): 200%; Cmax target safe level, Fold change ([1]; human): 2.0 fold; Cmax target safe level, Percent of baseline ([1]; human): 200%
O=C(c1ccc(F)c(F)c1Nc1ccc(I)cc1F)N1CC(O)([C@@H]2CCCCN2)C1 [cobimetinib]	6.7 fold	670%	3.2 fold	320%	
CC(C)(C)c1nc(-c2cccc(NS(=O)(=O)c3c(F)cccc3F)c2F)c(-c2ccnc(N)n2)s1 [dabrafenib]	1.71 fold	171%			
COC(=O)N[C@H](C(=O)N1CCC[C@H]1c1nc(-c2ccc3c(c2)O[C@@H](c2ccccc2)n2c-3cc3cc(-c4c[nH]c([C@@H]5CCCN5C(=O)[C@@H](NC(=O)OC)C(C)C)n4)ccc32)c[nH]1)C(C)C [elbasvir]	EBR: 1.8; fold	180%;	1.29; fold	129%;	
COC(=O)N[C@@H](C)CNc1nccc(-c2cn(C(C)C)nc2-c2cc(Cl)cc(NS(C)(=O)=O)c2F)n1 [encorafenib]	3 fold	300%	1.45 fold	145%	elevation of baseline AUC when coadministered with posaconazole (percent of baseline) (CYP3A4; in vivo): 300%
O=c1[nH]c2ccccc2n1CCN1CCN(c2cccc(C(F)(F)F)c2)CC1 [flibanserin]	1.4 fold	140%	1.1 fold	110%	
CCC(=O)O[C@]1(C(=O)SCF)[C@H](C)C[C@H]2[C@@H]3C[C@H](F)C4=CC(=O)C=C[C@]4(C)[C@@]3(F)[C@@H](O)C[C@@]21C [fluticasone propionate]					AUC co-administration levels, Fold change (CYP3A4; [2]): 1.9; fold; AUC co-administration levels, Percent of baseline (CYP3A4; [2]): 190%;
C=C[C@@H]1C[C@]1(NC(=O)[C@@H]1C[C@@H]2CN1C(=O)[C@H](C(C)(C)C)NC(=O)O[C@@H]1C[C@H]1CCCCCc1nc3ccc(OC)cc3nc1O2)C(=O)NS(=O)(=O)C1CC1.O [grazoprevir]	GZR: 3.02 fold	302%	1.13 fold	113%	
COc1cc2c(cc1OC)CC(=O)N(CCCN(C)C[C@H]1Cc3cc(OC)c(OC)cc31)CC2 [ivabradine]	7 fold	700%	3.25 fold	325%	AUC target safe level, Fold change ([1]; human): 2.1 fold; AUC target safe level, Percent of baseline ([1]; human): 210%; Cmax target safe level, Fold change ([1]; human): 1.6 fold; Cmax target safe level, Percent of baseline ([1]; human): 160%
N#Cc1ccnc(N2C(=O)CC[C@H]2C(=O)N(c2cncc(F)c2)[C@H](C(=O)NC2CC(F)(F)C2)c2ccccc2Cl)c1 [ivosidenib]	2.69 fold	269%			AUC target safe level, Fold change ([1]; human): 1.73 fold; AUC target safe level, Percent of baseline ([1]; human): 173%; Cmax target safe level, Fold change ([1]; human): 1.52 fold; Cmax target safe level, Percent of baseline ([1]; human): 152%
O=C(Nc1cnn2ccc(N3CCC[C@@H]3c3cc(F)ccc3F)nc12)N1CC[C@H](O)C1 [larotrectinib]	4.3 fold	430%	2.8 fold	280%	
C[C@H]1Oc2cc(cnc2N)-c2c(nn(C)c2C#N)CN(C)C(=O)c2ccc(F)cc21 [lorlatinib]	1.42 fold	142%	1.24 fold	124%	
C=CCN1CC[C@]23c4c5ccc(O)c4O[C@H]2[C@@H](OCCOCCOCCOCCOCCOCCOCCOC)CC[C@@]3(O)[C@H]1C5 [naloxegol]					AUC co-administration levels, Fold change (CYP3A4; [2]): 12.85 fold; AUC co-administration levels, Percent of baseline (CYP3A4; [2]): 1285%; Cmax co-administration levels, Fold change (CYP3A4; [2]): 9.58 fold; Cmax co-administration levels, Percent of baseline (CYP3A4; [2]): 958%; AUC target safe level, Fold change [1, 3]: 3.41 fold; AUC target safe level, Percent of baseline [1, 3]: 341%; Cmax target safe level, Fold change [1, 3]: 2.86 fold; Cmax target safe level, Percent of baseline [1, 3]: 286%
Cc1cn(-c2cc(NC(=O)c3ccc(C)c(Nc4nccc(-c5cccnc5)n4)c3)cc(C(F)(F)F)c2)cn1 [nilotinib]	3 fold	300%			
O=C(c1cc(Cc2n[nH]c(=O)c3ccccc23)ccc1F)N1CCN(C(=O)C2CC2)CC1 [olaparib]	2.2 fold	220%	1.1 fold	110%	
CNC(=O)c1cc(Oc2ccc(NC(=O)Nc3ccc(Cl)c(C(F)(F)F)c3)c(F)c2)ccn1 [regorafenib]	1.33 fold	133%			
CN(C)C(=O)c1cc2cnc(Nc3ccc(N4CCNCC4)cn3)nc2n1C1CCCC1 [ribociclib]	3.2 fold	320%	1.7 fold	170%	
O=C(NC[C@H]1CN(c2ccc(N3CCOCC3=O)cc2)C(=O)O1)c1ccc(Cl)s1 [rivaroxaban]	1.76 fold	176%	1.56 fold	156%	AUC target safe level, Fold change ([1]; human): 1.52 fold; AUC target safe level, Percent of baseline ([1]; human): 152%; Cmax target safe level, Percent of baseline ([1]; human): 0%
N#C[C@@H]1C[C@@H]2C[C@@H]2N1C(=O)[C@@H](N)C12CC3CC(CC(O)(C3)C1)C2 [saxagliptin]	3.67 fold	367%	2.44 fold	244%	
CC1(C)CCC(CN2CCN(c3ccc(C(=O)NS(=O)(=O)c4ccc(NCC5CCOCC5)c([N+](=O)[O-])c4)c(Oc4cnc5[nH]ccc5c4)c3)CC2)=C(c2ccc(Cl)cc2)C1 [venetoclax]	1.78 fold	178%	1.06 fold	106%	

Reference: patent US20230414607A1, “METHODS OF TREATMENT” (BOW RIVER LLC, priority 2017, published 2023)
